Source: a melting point compilation (Tetko et al.)

Question: Which melting point does the source give for `CC(C)c1nn(-c2ccccc2)cc1C=O` here?
Answer: 59 to 61 °C

Question: With `CC=Cc1ccc(OCC(=O)O)c(OC)c1` as the compound, how does the melting point read?
Answer: 117 to 119 °C

Question: With `CC1=CC=CC(=C2Nc3cc(F)ccc3N2C(C)C)C1=N` as the compound, how does the melting point read?
Answer: 185 to 187 °C

Question: Which melting point does the source give for `CC(C)(C)OC(=O)N1CCN(c2nnc(N)[nH]2)CC1` here?
Answer: 178 to 180 °C

Question: With `CCn1nc(C)c(C(=O)O)c1C(F)F` as the compound, how does the melting point read?
Answer: 134 to 136 °C

Question: Which melting point does the source give for `NCc1ccnc(-n2cccn2)c1` here?
Answer: 44 to 46 °C

Question: With `Cc1cc(-c2csc(N)n2)c(C)o1` as the compound, how does the melting point read?
Answer: 89 to 91 °C

Question: Which melting point does the source give for `CC(C)Cc1ccc(C(=O)O)cc1` here?
Answer: 144 to 146 °C

Question: Which melting point does the source give for `O=C(O)CCc1nnnn1-c1ccccc1` here?
Answer: 119 to 121 °C

Question: For `CCCCc1ccc(NS(=O)(=O)c2ccc(N)cc2)cc1`, which melting point is on record?
Answer: 159 to 161 °C

Question: With `Cc1ccc(NC(=O)c2cccc(Cl)c2)c(C(=O)O)c1` as the compound, how does the melting point read?
Answer: 191 to 193 °C

Question: With `COc1cc(NC(=O)C2CCCC2)c(C(=O)O)cc1OC` as the compound, how does the melting point read?
Answer: 193 to 195 °C

Question: Which melting point does the source give for `CS(=O)(=O)Cc1ccc(N)cc1F` here?
Answer: 152 to 154 °C

Question: Which melting point does the source give for `O=C(O)c1cc(OCc2ccccc2)ccn1` here?
Answer: 159 to 161 °C

Question: For `NC(Cn1cncn1)c1ccccc1` (stereo unspecified), which melting point is on record?
Answer: 87 to 89 °C

Question: Which melting point does the source give for `Cc1cccc(C(=O)Nc2ccc(O)cc2)c1` here?
Answer: 158 to 160 °C

Question: For `O=S(=O)(Cl)C1=Cc2ccc(OC(F)F)cc2CC1`, which melting point is on record?
Answer: 72 to 74 °C

Question: Which melting point does the source give for `CC(C)S(=O)(=O)Nc1ccc(S(N)(=O)=O)cc1F` here?
Answer: 134 to 136 °C

Question: For `N#Cc1ccc(C(=O)CC(=O)C(F)(F)F)cc1`, which melting point is on record?
Answer: 128 to 130 °C

Question: For `CCOC(=O)/C(C#N)=C/Nc1ccc(OCC)cc1`, which melting point is on record?
Answer: 115 to 117 °C

Question: For `COc1cccc(C(N)C(=O)O)c1` (stereo unspecified), which melting point is on record?
Answer: 198 to 200 °C

Question: With `NC1=C(c2nc3ccccc3[nH]2)C(=O)CN1N` as the compound, how does the melting point read?
Answer: 296 to 300 °C

Question: For `CNC(=O)CN1CCc2ccc(N)cc21`, which melting point is on record?
Answer: 143 to 145 °C

Question: For `COCCNS(=O)(=O)c1ccc(Cl)c(C(=O)O)c1`, which melting point is on record?
Answer: 142 to 144 °C

Question: Which melting point does the source give for `CCNC(=O)NC1CCC(O)CC1` (stereo unspecified) here?
Answer: 36 to 39 °C

Question: For `Cc1nccn1-c1ccc(N)cn1`, which melting point is on record?
Answer: 160 to 162 °C

Question: Which melting point does the source give for `COc1cc(C(=O)O)ccc1OCc1ccc(Cl)cc1` here?
Answer: 221 to 223 °C

Question: With `Nc1ccc(S(=O)(=O)Nc2ccc(F)c(Cl)c2)cc1` as the compound, how does the melting point read?
Answer: 173 to 175 °C

Question: With `NC(=O)C=C1CCCC1` as the compound, how does the melting point read?
Answer: 141 to 143 °C

Question: For `ON=C(C(=NO)c1ccccc1)c1ccccc1`, which melting point is on record?
Answer: 245 to 246 °C

Question: With `Fc1cc(CBr)c2ncccc2c1` as the compound, how does the melting point read?
Answer: 96 to 98 °C

Question: Which melting point does the source give for `O=C(O)CCc1ccc([N+](=O)[O-])cn1` here?
Answer: 135 to 137 °C

Question: With `Cc1cccc(NC(=O)Nc2cccc(CN)c2)c1` as the compound, how does the melting point read?
Answer: 163 to 165 °C

Question: For `COCCn1ncc2ccc(N)cc21`, which melting point is on record?
Answer: 86 to 88 °C

Question: Which melting point does the source give for `CC(C)n1ncc(C(=O)O)c1C(F)(F)F` here?
Answer: 125 to 127 °C

Question: Which melting point does the source give for `NNC(=O)c1ccc(NS(=O)(=O)c2cccc([N+](=O)[O-])c2)cc1` here?
Answer: 80 to 82 °C

Question: Which melting point does the source give for `CCOC(=O)c1c(N)sc(C(=O)NC)c1C` here?
Answer: 151 to 153 °C

Question: Which melting point does the source give for `CC(C)Cn1c(S)nnc1N1CCOCC1` here?
Answer: < 17 °C

Question: For `NC(=O)CCn1c(S)nnc1-c1cccs1`, which melting point is on record?
Answer: 219 to 221 °C

Question: With `C1C2CC3CC1CC(C2)C31CO1` (stereo unspecified) as the compound, how does the melting point read?
Answer: 180 to 182 °C

Question: With `Nc1cc2c(cc1N)OCC(=O)N2` as the compound, how does the melting point read?
Answer: 252 to 254 °C

Question: Which melting point does the source give for `Nc1n[nH]c(Cc2cccc(F)c2)n1` here?
Answer: 179 to 181 °C

Question: Which melting point does the source give for `CN(Cc1c(F)cccc1Cl)C(=O)CCl` here?
Answer: 54 to 56 °C

Question: Which melting point does the source give for `C=CCNC(=O)NC(=O)C(C)Cl` (stereo unspecified) here?
Answer: 68 to 70 °C

Question: For `Cn1ncnc1-c1ccc(C(=O)O)cc1`, which melting point is on record?
Answer: 240 to 242 °C

Question: With `COCc1cc(O)ncn1` as the compound, how does the melting point read?
Answer: 159 to 161 °C

Question: For `O=C(O)c1cnoc1-c1ccc(Cl)cc1`, which melting point is on record?
Answer: 205 to 207 °C

Question: For `Cc1c(C(=O)O)sc2nc3n(c(=O)c12)CCCCC3`, which melting point is on record?
Answer: 253 to 255 °C

Question: Which melting point does the source give for `CC(C)COc1cccc(C(=O)O)c1` here?
Answer: 85 to 89 °C

Question: Which melting point does the source give for `N#CCCCS(N)(=O)=O` here?
Answer: 49 to 51 °C

Question: With `Cc1nc(C)c(CC(=O)O)c(=O)[nH]1` as the compound, how does the melting point read?
Answer: 229 to 231 °C

Question: For `O=S(=O)(c1ccc(Cl)nc1)N1CCCC1`, which melting point is on record?
Answer: 149 to 151 °C

Question: For `Cc1cc(Br)cc(C)c1C#N`, which melting point is on record?
Answer: 68 to 70 °C

Question: Which melting point does the source give for `Cc1ccc(NC(=O)C(=O)NN)cc1` here?
Answer: 204 to 206 °C

Question: Which melting point does the source give for `NCC(O)c1ccccc1F` (stereo unspecified) here?
Answer: 62 to 64 °C

Question: With `O=C(O)Cn1ccc(=O)c([N+](=O)[O-])c1` as the compound, how does the melting point read?
Answer: 249 to 251 °C

Question: With `CCCNC(=O)c1ccc(Cl)cc1[N+](=O)[O-]` as the compound, how does the melting point read?
Answer: 107 to 109 °C

Question: Which melting point does the source give for `CN(C)CCC(=O)O` here?
Answer: 130 to 132 °C

Question: With `CCNc1ccc(Br)cn1` as the compound, how does the melting point read?
Answer: 67 to 69 °C

Question: For `COc1ccc(C)cc1C(=O)CBr`, which melting point is on record?
Answer: 73 to 75 °C

Question: With `Cc1ccccc1-n1c(C)cc(C(=O)CCl)c1C` as the compound, how does the melting point read?
Answer: 65 to 67 °C

Question: Which melting point does the source give for `CCOC(=O)c1c(N)n(CCO)c2nc3ccccc3nc12` here?
Answer: 226 to 228 °C

Question: Which melting point does the source give for `NNC(=O)Cc1ccc(Cl)cc1` here?
Answer: 165 to 167 °C

Question: With `CCc1ccc(S(=O)(=O)O)cc1N` as the compound, how does the melting point read?
Answer: 268 to 270 °C

Question: With `Brc1cccn2cnnc12` as the compound, how does the melting point read?
Answer: 184 to 186 °C

Question: With `O=C(O)CCc1ccc(S(=O)(=O)NC2CC2)cc1` as the compound, how does the melting point read?
Answer: 173 to 175 °C

Question: With `CC(C)(C)c1cc(N)n(C(C)(C)C)n1` as the compound, how does the melting point read?
Answer: 69 to 71 °C

Question: Which melting point does the source give for `Fc1ccc(-n2c(S)nnc2-c2ccncc2)cc1` here?
Answer: 165 to 175 °C

Question: With `CCOc1ccc(S(=O)(=O)N(C)c2ccc(OCC(=O)O)cc2)cc1` as the compound, how does the melting point read?
Answer: 82 to 84 °C

Question: With `CC(=O)c1[nH]c2c(c1C)C(=O)NC(=O)C2` as the compound, how does the melting point read?
Answer: 354 to 356 °C

Question: For `COC(=O)c1cccc(-c2nc(CCl)cs2)c1`, which melting point is on record?
Answer: 129 to 131 °C
